Test results from patent US9220791B2, “Bispecific intracellular delivery vehicles” (University of Washington, priority 2008, dated 2015).

Legend:
Type in all cases: cell-based, human
HeLa cells [1] = assay: Flow cytometry evaluation of mitochondrial membrane potential (JC-1 dye); details: 2 hours, 10 μM peptide or equivalent conjugate or polymer alone, versus no treatment
Procedure: (§1) HeLas, human cervical carcinoma cells (ATCC CCL-2), were maintained in minimum essential media (MEM) containing L-glutamine, 1% penicillin-streptomycin, and 10% FBS. Prior to experiments, HeLas were allowed to adhere overnight in 8-well chamber slides (20,000 cells/well) for microscopy or 96-well plates (10,000 cells/well) for other assays. Polymer-peptide conjugates and controls were added in MEM with 1% FBS.
Loss of mitochondrial membrane potential, a known indicator for apoptosis, was assessed using the JC-1 dye. […] HeLas were incubated for 2 hours with 10 μM peptide or equivalent conjugate or polymer alone. JC-1 was added at a final concentration of 5 μg/mL and incubated for 15 minutes. Cells were washed 2 times with PBS, trypsinized, and resuspended in 0.5% BSA for flow cytometric analysis. Percent of cells displaying mitochondrial depolarization was quantified based on the number of green fluorescent cells that were negative for red fluorescence. Here, a significant loss of red fluorescent JC-1 aggregates and therefore a loss in mitochondrial polarization was detected following treatment with both the Antp-BH3 peptide and the polymer peptide conjugate (FIG. 8A).

HeLa cells [2] = assay: Fluorescent microscopic analysis of conjugate endosomal escape; details: Alexa-488 labeled peptide, 25 μM Antp-BH3, 15 minutes treatment
Procedure: as §1
An amine reactive Alexa-488 succinimidyl ester was mixed at a 1 to 1 molar ratio with the Antp-BH3 peptide in anhydrous dimethyl formamide (DMF). Unreacted fluorophore and organic solvent were removed using a PD 10 desalting column, and the fluorescently labeled peptide was lyophilized. Alexa-488 labeled Antp-BH3 was conjugated to the polymer as described above. Free peptide or polymer-peptide conjugate was applied to HeLas grown on chambered microscope slides at a concentration of 25 μM Antp-BH3. Cells were treated for 15 minutes, washed twice with PBS, and incubated in fresh media for an additional 30 minutes. The samples were washed again and fixed with 4% paraformaldehyde for 10 minutes at 37° C. Slides were mounted with ProLong Gold Antifade reagent containing DAPI and imaged using a fluorescent microscope.

HeLa cells [3] = assay: Lactate dehydrogenase (LDH) cytotoxicity assay; details: HeLa cervical cancer cells
Procedure: Bioconjugate efficacy for triggering tumor cell death was determined using a lactate dehydrogenase (LDH) cytotoxicity assay. At the end of each time point, cells were washed two times with PBS and then lysed with cell lysis buffer (100 μL/well, 20 mM Tris-HCl, pH 7.5, 150 mM NaCl, 1 mM Na2EDTA, 1 mM EGTA, 1% Triton, 2.5 mM sodium pyrophosphate, 1 mM β-glycerophosphate, 1 mM sodium orthovanadate) for 1 hour at 4° C. 20 μl of lysate from each sample was diluted into 80 μl PBS, and LDH was quantified by mixing with 100 μL of the LDH substrate solution. Following a 10 minute incubation, LDH was determined by measuring absorbance at 490 nm. Percent viability was expressed relative to samples receiving no treatment.

caspases 3 and 7 = assay: Caspase 3/7 activity assay; details: HeLa, 30 minutes, 25 μM peptide (alone or as conjugate) or equivalent polymer, relative to no treatment
Procedure: as §1
Caspase 3/7 activation was measured using a commercially available assay kit. This assay utilizes a profluorescent caspase 3/7 substrate that once enzymatically cleaved becomes fluorescent allowing for determination of relative enzyme activity using a fluorescent plate reader. Here, HeLas were incubated for 30 minutes with 25 μM peptide (alone or as polymer conjugate) in addition to polymer alone in a quantity equivalent to the conjugate samples. Afterwards, a caspase 3/7 fluorigenic indicator was added directly to the culture media for each sample. Plates were shaken for 1 hour and then assayed using a fluorescent plate reader. Data were expressed as percent caspase activity relative to samples receiving no treatment.

erythrocytes = details: pH 5.8
Procedure: In order to assess the polymer's potential for endosomolytic activity, a membrane disruption assay was utilized to measure the capacity of the polymer to trigger pH-dependent disruption of lipid bilayer membranes as shown in FIG. 5. Whole human blood was drawn and centrifuged for plasma removal. The remaining erythrocytes were washed three times with 150 mM NaCl and resuspended into phosphate buffers corresponding to physiological (pH 7.4), early endosome (pH 6.6), and late endosome (pH 5.8) environments. The polymer (1-40 μg/mL) or 1% Triton X-100 was added to the erythrocyte suspensions and incubated for 1 hour at 37° C. Intact erythrocytes were pelleted via centrifugation, and the hemoglobin content within the supernatant was measured via absorbance at 541 nm. Percent hemolysis was determined relative to Triton X-100. Polymer hemolysis was quantified at concentrations ranging from 1-40 μg/mL relative to 1% v/v Triton X-100. This experiment was completed 2 times in triplicate, yielding similar results. The data shown represent a single experiment conducted in triplicate±standard deviation.

NH2-RQIKIWFQNRRMKWKKMGQVGRQLAIIGDDINRRYDSC-COOH (H-RQIKIWFQNRRMKWKKMGQVGRQLAIIGDDINRRYDSC-OH) [Antp-BH3 peptide, cell internalizing form of the Bak-BH3 peptide fused to Antennapedia peptide, carboxy-terminal cysteine]
increase in percent of cells exhibiting loss of mitochondrial polarity (HeLa cells [1]): approximately 4 fold | peptide intracellular localization (fluorescence pattern) (HeLa cells [2]): punctate staining | HeLa cell death / treatment effect (qualitative) (HeLa cells [3]): negligible treatment effect | caspase 3/7 activation (caspases 3 and 7): approximately 2.5 fold

Poly[HPMA]-b-[(PAA)(BMA)(DMAEMA)] [diblock copolymer]
hemolysis (erythrocytes): significant increase in hemolysis
